Experimental data reported in patent publication US8841337B2, “Compounds useful as inhibitors of ATR kinase” (Vertex Pharmaceuticals Incorporated, priority 2011, dated 2014).

Biological target: T1, full-length ATR (Homo sapiens, UniProt Q13535)
T1 construct: Assays were carried out at 25° C. in the presence of 5 nM full-length ATR
Assay: ATR Inhibition Assay (radioactive-phosphate incorporation)
Type: biochemical
Settings: Ki(app); 5 nM full-length ATR, 10 μM [γ-33P]ATP, 800 μM target peptide, 25° C.
Experimental: Compounds were screened for their ability to inhibit ATR kinase using a radioactive-phosphate incorporation assay. Assays were carried out in a mixture of 50 mM Tris/HCl (pH 7.5), 10 mM MgCl2 and 1 mM DTT. Final substrate concentrations were 10 μM [γ-33P]ATP (3 mCi 33P ATP/mmol ATP, Perkin Elmer) and 800 μM target peptide (ASELPASQPQPFSAKKK).
Assays were carried out at 25° C. in the presence of 5 nM full-length ATR. An assay stock buffer solution was prepared containing all of the reagents listed above, with the exception of ATP and the test compound of interest. 13.5 μL of the stock solution was placed in a 96 well plate followed by addition of 2 μL of DMSO stock containing serial dilutions of the test compound (typically starting from a final concentration of 15 μM with 3-fold serial dilutions) in duplicate (final DMSO concentration 7%). The plate was pre-incubated for 10 minutes at 25° C. and the reaction initiated by addition of 15 μL [γ-33P]ATP (final concentration 10 μM).
The reaction was stopped after […] by the addition of 30 μL 0.1M phosphoric acid containing 2 mM ATP. […]
After removing mean background values for all of the data points, Ki(app) data were calculated from non-linear regression analysis of the initial rate data using the Prism software package (GraphPad Prism version 3.0cx for Macintosh, GraphPad Software, San Diego Calif., USA).

T1 sequence (Q13535 whole entry): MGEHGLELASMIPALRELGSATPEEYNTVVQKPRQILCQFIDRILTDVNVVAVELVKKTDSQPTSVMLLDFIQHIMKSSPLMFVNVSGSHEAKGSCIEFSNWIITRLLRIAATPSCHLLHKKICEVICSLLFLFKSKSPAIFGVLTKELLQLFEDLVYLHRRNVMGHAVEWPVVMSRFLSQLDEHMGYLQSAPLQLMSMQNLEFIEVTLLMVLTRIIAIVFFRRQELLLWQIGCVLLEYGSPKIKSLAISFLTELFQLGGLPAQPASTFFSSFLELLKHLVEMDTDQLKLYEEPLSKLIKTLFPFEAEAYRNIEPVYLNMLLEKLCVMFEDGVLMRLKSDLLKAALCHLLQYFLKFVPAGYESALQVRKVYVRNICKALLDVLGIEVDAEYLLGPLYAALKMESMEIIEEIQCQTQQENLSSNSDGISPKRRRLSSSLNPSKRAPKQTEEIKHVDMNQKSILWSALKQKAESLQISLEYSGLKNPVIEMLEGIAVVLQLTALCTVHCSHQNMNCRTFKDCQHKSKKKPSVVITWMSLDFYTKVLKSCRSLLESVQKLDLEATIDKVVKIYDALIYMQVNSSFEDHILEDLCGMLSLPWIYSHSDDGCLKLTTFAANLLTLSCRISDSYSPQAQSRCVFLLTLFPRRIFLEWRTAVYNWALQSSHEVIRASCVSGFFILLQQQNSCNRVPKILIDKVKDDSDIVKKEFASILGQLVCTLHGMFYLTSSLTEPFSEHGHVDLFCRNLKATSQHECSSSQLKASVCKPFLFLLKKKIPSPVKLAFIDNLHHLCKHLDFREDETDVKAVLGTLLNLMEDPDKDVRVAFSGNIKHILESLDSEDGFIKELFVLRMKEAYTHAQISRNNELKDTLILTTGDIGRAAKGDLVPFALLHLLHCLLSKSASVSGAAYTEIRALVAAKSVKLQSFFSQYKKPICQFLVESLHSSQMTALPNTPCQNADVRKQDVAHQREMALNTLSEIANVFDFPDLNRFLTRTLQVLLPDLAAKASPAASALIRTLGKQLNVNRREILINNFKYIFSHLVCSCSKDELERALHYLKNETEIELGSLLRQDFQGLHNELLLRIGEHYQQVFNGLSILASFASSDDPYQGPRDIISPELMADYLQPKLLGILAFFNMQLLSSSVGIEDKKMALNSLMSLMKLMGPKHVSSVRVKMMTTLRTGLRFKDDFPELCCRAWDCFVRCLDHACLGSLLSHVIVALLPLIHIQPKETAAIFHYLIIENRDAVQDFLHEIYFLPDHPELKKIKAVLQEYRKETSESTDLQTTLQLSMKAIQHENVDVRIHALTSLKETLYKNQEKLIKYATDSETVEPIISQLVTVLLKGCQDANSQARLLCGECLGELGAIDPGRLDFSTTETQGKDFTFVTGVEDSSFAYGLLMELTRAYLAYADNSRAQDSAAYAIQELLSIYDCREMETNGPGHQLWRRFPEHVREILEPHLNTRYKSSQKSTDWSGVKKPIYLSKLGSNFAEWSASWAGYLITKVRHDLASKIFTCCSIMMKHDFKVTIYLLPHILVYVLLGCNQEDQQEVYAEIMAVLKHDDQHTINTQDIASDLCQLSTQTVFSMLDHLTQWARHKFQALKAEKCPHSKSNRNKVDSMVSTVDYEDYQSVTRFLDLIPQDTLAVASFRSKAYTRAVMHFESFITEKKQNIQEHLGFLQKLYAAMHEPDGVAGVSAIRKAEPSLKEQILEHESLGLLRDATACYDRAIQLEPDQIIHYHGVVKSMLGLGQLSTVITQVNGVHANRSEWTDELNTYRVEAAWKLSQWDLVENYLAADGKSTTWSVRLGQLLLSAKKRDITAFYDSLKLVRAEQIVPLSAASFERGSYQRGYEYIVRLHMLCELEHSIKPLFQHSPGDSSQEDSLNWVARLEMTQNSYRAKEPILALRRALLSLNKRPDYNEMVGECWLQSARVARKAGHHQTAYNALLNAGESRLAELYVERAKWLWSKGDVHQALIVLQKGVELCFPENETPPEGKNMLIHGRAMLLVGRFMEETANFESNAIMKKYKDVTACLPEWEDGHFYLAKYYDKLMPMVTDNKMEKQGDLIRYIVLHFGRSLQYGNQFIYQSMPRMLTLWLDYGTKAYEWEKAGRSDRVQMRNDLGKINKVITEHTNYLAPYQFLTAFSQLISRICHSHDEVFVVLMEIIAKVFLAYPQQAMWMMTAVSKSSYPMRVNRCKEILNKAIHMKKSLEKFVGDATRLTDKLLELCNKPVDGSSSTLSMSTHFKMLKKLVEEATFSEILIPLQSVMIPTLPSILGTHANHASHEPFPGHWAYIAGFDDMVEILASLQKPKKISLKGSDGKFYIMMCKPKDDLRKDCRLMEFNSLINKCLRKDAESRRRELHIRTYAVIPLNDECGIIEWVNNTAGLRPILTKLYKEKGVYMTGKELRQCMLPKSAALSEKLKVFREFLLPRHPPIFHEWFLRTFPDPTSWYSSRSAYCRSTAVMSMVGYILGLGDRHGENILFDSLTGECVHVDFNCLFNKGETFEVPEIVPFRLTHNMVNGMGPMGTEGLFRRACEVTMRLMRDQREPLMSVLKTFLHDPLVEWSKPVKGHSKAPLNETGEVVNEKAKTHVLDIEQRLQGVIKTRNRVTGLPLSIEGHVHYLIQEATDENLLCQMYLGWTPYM

SMILES | Ki
CC(C)S(=O)(=O)c1ccc(-c2cnc(N)c(-c3ncc(-c4ccccc4)o3)n2)cc1 [Compound I-2, 5-(4-(isopropylsulfonyl)phenyl)-3-(5-phenyloxazol-2-yl)pyrazin-2-amine] | 4.03 nM
CC(C)S(=O)(=O)c1ccc(-c2cnc(N)c(-c3cc(-c4ccccc4)[nH]n3)n2)cc1 [Compound I-1, 5-(4-(isopropylsulfonyl)phenyl)-3-(5-phenyl-1H-pyrazol-3-yl)pyrazin-2-amine] | 2.86 nM
